Test results published in paper PMC8881573, “Inhibition of SRP-dependent protein secretion by the bacterial alarmone (p)ppGpp” (Nature Communications, 2022).

How the values were obtained:
[1] = target: T1, full-length (Ec)Ffh and (Ec)FtsY-NG (Escherichia coli, UniProt P0AGD7+P10121); experiment: GTPase activity (GTP hydrolysis, HPLC); format: biochemical, E. coli; conditions: alarmone at concentrations equimolar to the GTP substrate (1 mM) or higher; with or without 4.5S RNA, ΔEspP signal peptide, C12E8
T1 construct: GTPase activity of full-length (Ec)Ffh and the NG domain of (Ec)FtsY was assayed; His-tag; His6 (C); made in house; host or cells: E. coli BL21 (DE3)
T1 sequence (P0AGD7 whole entry, the tested form may be a part): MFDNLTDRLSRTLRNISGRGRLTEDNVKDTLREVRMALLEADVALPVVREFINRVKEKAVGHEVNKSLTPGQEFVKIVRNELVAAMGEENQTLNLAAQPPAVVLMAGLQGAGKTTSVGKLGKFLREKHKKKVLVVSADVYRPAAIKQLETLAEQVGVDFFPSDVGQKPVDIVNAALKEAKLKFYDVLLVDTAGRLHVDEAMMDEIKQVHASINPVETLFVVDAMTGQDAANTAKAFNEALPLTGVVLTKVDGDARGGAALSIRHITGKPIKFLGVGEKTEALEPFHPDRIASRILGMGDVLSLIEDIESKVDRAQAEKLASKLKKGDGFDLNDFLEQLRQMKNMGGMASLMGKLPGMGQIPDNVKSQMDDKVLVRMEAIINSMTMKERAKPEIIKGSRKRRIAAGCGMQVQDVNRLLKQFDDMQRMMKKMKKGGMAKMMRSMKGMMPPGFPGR
T1 sequence (P10121 197-497): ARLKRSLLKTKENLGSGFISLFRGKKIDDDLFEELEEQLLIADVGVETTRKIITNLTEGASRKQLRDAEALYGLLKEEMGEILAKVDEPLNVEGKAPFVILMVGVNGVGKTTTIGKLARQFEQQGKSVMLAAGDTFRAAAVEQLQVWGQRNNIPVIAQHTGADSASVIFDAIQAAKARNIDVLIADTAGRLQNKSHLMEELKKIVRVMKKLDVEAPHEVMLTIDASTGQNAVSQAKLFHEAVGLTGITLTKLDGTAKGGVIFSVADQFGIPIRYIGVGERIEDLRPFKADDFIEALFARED
Procedure: GTPase activity of full-length (Ec)Ffh and the NG domain of (Ec)FtsY was assayed in a buffer containing 25 mM HEPES-K pH 7.5, 10 mM Mg(OAc)2, 300 mM K(OAc), 1 mM DTT, and 2.5% (v/v) glycerol. The samples contained 5 µM (Ec)Ffh, 5 µM (Ec)FtsY-NG, 6 µM 4.5S RNA, 5 µM ΔEspP (EspP signal peptide sequence: MKK HKR ILA LCF LGL LQS SYS WAK KKK, custom synthesized from Genosphere Biotechnologies (France)[40], and 100 µM C12E8 (octaethylenglykol-monododecylether, Sigma Aldrich)[40] as indicated in figures. Alarmones ppGpp (Jena Bioscience, ≥95% purity) or pppGpp (Jena Bioscience, ≥85% purity) were supplemented in concentrations of 10, 25, 100, 250, 1000, 2500, or 10,000 µM as indicated in the figures. The enzymatic reactions were initiated by the addition of 1 mM GTP (Jena Bioscience, ≥99% purity) and allowed to proceed for 60 min at 37 °C, after which 40 µL double-distilled water were added immediately followed by 150 µL of chloroform. […] The nucleotide content was determined by high-performance liquid chromatography (HPLC) on an Agilent 1260 Infinity system (software: ChemStation Rev. B04.03-SP1) equipped with a Metrosep A Supp 5–150/4.0 column (Metrohm). Ten microliters of sample were injected and nucleotides eluted isocratically at 0.6 mL min^−1 flow rate of 100 mM (NH4)2CO3 pH 9.25 and detected at 260 nm wavelength. […]

(Ec)FtsY-NG = target: T2, (Ec)FtsY-NG (Escherichia coli, UniProt P10121); experiment: Microscale thermophoresis (MST) ligand binding; set-up: species or system E. coli; conditions: NG domain labeled with NT 647, 21 °C; read-out: (Ec)FtsY KD MST
T2 construct: purified NG domains of (Ec)Ffh, (Ec)FtsY and (Bs)Ffh; His6 (C); made in house; host or cells: E. coli BL21 (DE3)
T2 sequence (P10121 197-497): as above
Procedure: (§1) Ligand binding assays with purified NG domains of (Ec)Ffh, (Ec)FtsY and (Bs)Ffh proteins were carried out by microscale thermophoresis (MST)[80]. All experiments were performed on a Monolith NT.115 (NanoTemper Technologies GmbH, Munich, Germany; software: NanoTemper Control Version 2.0.2.29) at 21 °C (red LED power was set to 50–100% and infrared laser power to 75%). After labeling of primary amines within (Ec)Ffh, (Ec)FtsY, and (Bs)Ffh (50 µM each) with the dye NT 647 (according to the manufacturers protocol), the proteins were re-buffered in SEC buffer containing 20 mM HEPES-Na, 20 mM KCl, 20 mM MgCl2, 200 mM NaCl (final pH 7.5), 10 mg ml^−1 BSA and 0.007% Tween. Two-hundred nanomolar of (Ec)Ffh, (Ec)FtsY, and (Bs)Ffh were titrated with GDP, GTP, ppGpp, and pppGpp starting from a concentration ranging between 0.75 and 3 mM, respectively. At least six independent MST experiments per ligand and protein were recorded at 680 nm and analyzed using NanoTemper Analysis version 1.5.37 and 1.2.009, and Origin8G software suits.

(Ec)Ffh-NG = target: T3, (Ec)Ffh-NG (Escherichia coli, UniProt P0AGD7); experiment: Microscale thermophoresis (MST) ligand binding; set-up: species or system E. coli; conditions: NG domain labeled with NT 647, 21 °C
T3 construct: purified NG domains of (Ec)Ffh, (Ec)FtsY and (Bs)Ffh; His6 (C); made in house; host or cells: E. coli BL21 (DE3)
T3 sequence (P0AGD7 1-296): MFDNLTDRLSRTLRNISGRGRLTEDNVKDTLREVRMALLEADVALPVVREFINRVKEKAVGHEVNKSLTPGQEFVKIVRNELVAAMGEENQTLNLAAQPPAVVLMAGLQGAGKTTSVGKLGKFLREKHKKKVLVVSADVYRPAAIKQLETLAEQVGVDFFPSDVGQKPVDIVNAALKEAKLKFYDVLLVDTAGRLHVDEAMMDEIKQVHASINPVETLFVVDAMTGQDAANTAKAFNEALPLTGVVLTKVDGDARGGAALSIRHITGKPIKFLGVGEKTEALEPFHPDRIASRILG
Procedure: as §1

SRP/FtsY = target: T4, SRP/FtsY (Escherichia coli, UniProt P0AGD7+P10121); experiment: Floatation analysis of co-translational membrane targeting of RNCs to SecYEG-proteoliposomes; format: biochemical, E. coli; conditions: 50 µM final concentration, 10 µM GTP
T4 construct: (Ec)Ffh (full-length) was concentrated on a 10 kDa centrifugal filter; (Ec)FtsY (full-length) was re-buffered in HT buffer; His-tag; made in house; host or cells: E. coli
T4 sequence (P0AGD7 whole entry): as the sequence (P0AGD7 whole entry, the tested form may be a part) above
T4 sequence (P10121 whole entry): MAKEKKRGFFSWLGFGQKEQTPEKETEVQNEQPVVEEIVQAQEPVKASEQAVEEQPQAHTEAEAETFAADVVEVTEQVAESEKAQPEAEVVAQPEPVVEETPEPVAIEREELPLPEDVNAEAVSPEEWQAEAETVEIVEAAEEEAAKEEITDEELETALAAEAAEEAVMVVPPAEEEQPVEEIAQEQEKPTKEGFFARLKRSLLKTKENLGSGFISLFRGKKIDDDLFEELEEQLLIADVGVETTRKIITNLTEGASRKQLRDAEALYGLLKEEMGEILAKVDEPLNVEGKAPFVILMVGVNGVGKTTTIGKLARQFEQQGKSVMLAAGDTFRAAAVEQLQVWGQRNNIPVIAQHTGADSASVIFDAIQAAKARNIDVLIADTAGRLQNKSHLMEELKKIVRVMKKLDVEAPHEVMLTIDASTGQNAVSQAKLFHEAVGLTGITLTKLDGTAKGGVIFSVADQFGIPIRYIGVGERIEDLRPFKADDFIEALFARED
Procedure: For in vitro synthesizing FtsQ- and LepB-RNCs, the T7-dependent expression vectors pKSM-FtsQ and pKSM-LepB were used[37],[79]. In brief, the first 102 amino acids of LepB, and the first 120 amino acids of FtsQ were fused to the SecM stalling sequence and cloned into the pET19b vector. In vitro synthesis was performed in a coupled transcription/translation system as described for YohP. After in vitro synthesis, the RNCs were incubated with INVs (1 µL), liposomes (2 µL), or SecYEG-proteoliposomes (2 µL; 100 ng SecYEG µL^−1) in floatation buffer (50 mM triethanolamine acetate, pH 8.0; 10 µM GTP, 10 mM magnesium acetate, 70 mM potassium acetate; 250 mM sucrose and 1 mM DTT) for 15 min at 25 °C. When indicated, SRP/FtsY (20 ng µL^−1 each) and ppGpp or pppGpp (50 µM final concentration) was present during incubation. Membrane binding of RNCs was assayed by floatation analyses. The reaction mixture was adjusted to 1.6 M sucrose (final volume 100 µL) and overlaid with 200 µL of 1.25 M sucrose and 100 µL 0.25 M sucrose, each prepared in floatation buffer. Following centrifugation in a TLA 100.2 rotor (Beckmann-Coulter) at […] for 90 min, the upper 200 µL of the gradient, containing the membrane fraction (MF) were withdrawn and precipitated with 10% (w/v) TCA (final concentration). The pelleted (non-bound soluble fraction, SF) RNCs were resuspended in the remaining 200 µL of the gradient and TCA precipitated. Samples were subsequently analyzed by 15% SDS-PAGE and autoradiography. RNC binding to membranes was quantified by using the ImageQuant (GE Healthcare, München, Germany) software. The experiments were performed at least three times as independent experiments and representative images are shown. Mean values and SEM values were determined by using either Excel (Microsoft Corp.) or GraphPad Prism (GraphPad Prism Corp. San Diego).

Row | Structure (SMILES) | GTP hydrolysis [1] | Kd ((Ec)FtsY-NG) | Kd ((Ec)Ffh-NG) | membrane targeting of FtsQ-RNCs (SRP/FtsY) | membrane targeting of LepB-RNCs (SRP/FtsY)
1 | Nc1nc2c(ncn2[C@@H]2O[C@H](COP(=O)(O)OP(=O)(O)O)[C@@H](OP(=O)(O)OP(=O)(O)O)[C@H]2O)c(=O)[nH]1 [ppGpp] | reduction of GTP hydrolysis | 30 µM | 13.5 µM | completely blocked | completely blocked
2 | Nc1nc2c(ncn2[C@@H]2O[C@H](COP(=O)(O)OP(=O)(O)OP(=O)(O)O)[C@@H](OP(=O)(O)OP(=O)(O)O)[C@H]2O)c(=O)[nH]1 [pppGpp] | reduction of GTP hydrolysis | 66.6 µM | 68.3 µM | completely blocked | completely blocked
